In assay [1] the test system is Moloney murine sarcoma virus. Description: Effective concentration against Moloney sarcoma virus. The format is functional, organism-based, Viruses.
Assay [2] concerns Human immunodeficiency virus 2. Description: Effective concentration against human immunodeficiency virus type 2. The assay is classed as functional, organism-based.
Assay [3] concerns Enterococcus faecalis. Briefly: Minimum inhibitory concentration against 559 glycopeptide susceptible enterococci Enterococcus faecalis. The assay is classed as functional.
For assay [4], the system named is Staphylococcus aureus. Description: Minimum inhibitory concentration against glycopeptide intermediate-resistant 3797 Staphylococcus aureus. The assay is classed as functional.
For another assay, the system named is CCRF-CEM. Briefly: Cytostatic activity to the compound against CEM cell line. As to conditions: Homo sapiens. The assay is classed as functional, cell-based.
Another assay has as its system L1210. Description: Cytostatic activity against L1210 cell line. The assay is classed as functional, cell-based. As to conditions: Mus musculus.
Assay [5] concerns Enterococcus faecium. Description: Minimum inhibitory concentration against glycopeptide resistant enterococci 569 Enterococcus faecium. The format is functional.
Assay [6] has as its system Enterococcus faecium. Briefly: Minimum inhibitory concentration against glycopeptide susceptible enterococci 568 Enterococcus faecium. The format is functional.
The subject of assay [7] is Staphylococcus aureus. Briefly: Minimum inhibitory concentration against glycopeptide intermediate-resistant 3798 Staphylococcus aureus. The format is functional.
Assay [8] deals with Enterococcus faecalis. Briefly: Minimum inhibitory concentration against glycopeptide resistant enterococci 560 Enterococcus faecalis. The format is functional.
Assay [9] relates to Staphylococcus epidermidis. Briefly: Minimum inhibitory concentration against 533 Staphylococcus epidermidis. The assay is classed as functional.
Assay [10] relates to Staphylococcus haemolyticus. Briefly: Minimum inhibitory concentration against 602 Staphylococcus haemolyticus. The format is functional.
The test system of assay [11] is Human immunodeficiency virus 1. Description: Effective concentration against human immunodeficiency virus type 1. The format is functional, organism-based.
In the next assay the test system is MOLT-4. Briefly: Cytostatic activity to the compound against Molt4/C8 cell line. The following applies: Homo sapiens. The format is functional, cell-based.
In another assay the test system is C3H/3T3. Description: Minimal cytotoxic concentration to cause an alteration in C3H/3T3 cell line morphology. The assay is classed as functional. The following applies: Mus musculus.

Converted amounts (≈) assume the structure as drawn.

For orientation: EC50 means the concentration needed to bring the measured effect to its halfway point. A high value points to lower potency in that assay. As usually defined, the MIC is the least concentration at which growth counts as inhibited. Lower therefore signals a more susceptible organism. As usually defined, the IC50 is the concentration that gives 50% inhibition. A high value points to weaker potency in that assay. Turning to `CN[C@H](CC(C)C)C(=O)N[C@H]1C(=O)N[C@@H](CC(N)=O)C(=O)N[C@H]2C(=O)N[C@H]3C(=O)N[C@H](C(=O)N[C@H](C(=O)NCC45CC6CC(CC(C6)C4)C5)c4cc(O)cc(O)c4-c4cc3ccc4O)[C@H](O)c3ccc(cc3)Oc3cc2cc(c3O)Oc2ccc(cc2)[C@H]1O`, the EC50 in [1] came out at 11 µM; in [2], 12 µM; in [11] it was 8.5 µM. For the same molecule, the MIC is 8 µg/mL (≈ 6.54 µM) against Enterococcus faecalis [3]; 8 µg/mL (≈ 6.54 µM) in the assay on Staphylococcus aureus [4]; 16 µg/mL (≈ 13.1 µM) against Enterococcus faecium [5]; 4 µg/mL (≈ 3.27 µM) in the assay on Enterococcus faecium [6]; 16 µg/mL (≈ 13.1 µM) against Staphylococcus aureus [7]; 16 µg/mL (≈ 13.1 µM) against Enterococcus faecalis [8]. Moreover, the minimum inhibitory concentration (MIC) in assay [9] was determined as 8 µg/mL (≈ 6.54 µM); in [10], 16 µg/mL (≈ 13.1 µM). For the same molecule, the 50% inhibitory concentration (IC50) in the assay on CCRF-CEM amounted to 165 µM; in the assay with L1210, 58 µM; with MOLT-4, 44 µM. In addition, the MCC in the assay on C3H/3T3 was determined as 100 µg/mL.
In the case of `NC(=O)C[C@@H]1NC(=O)[C@H](N)[C@H](O)c2ccc(cc2)Oc2cc3cc(c2O)Oc2ccc(cc2)[C@@H](O)[C@@H]2NC(=O)[C@H](NC(=O)[C@@H]3NC1=O)c1ccc(O)c(c1)-c1c(O)cc(O)cc1[C@@H](C(=O)NCC13CC4CC(CC(C4)C1)C3)NC2=O`, the concentration for a half-maximal effect (EC50) in [1] came to 2.6 µM; in assay [2] it was 25.7 µM; in [11] it was 30 µM. For the same molecule, the MIC in the assay on Enterococcus faecalis [3] is greater than 64 µg/mL; with Staphylococcus aureus [4], greater than 32 µg/mL; with Enterococcus faecium [5], greater than 64 µg/mL; in the assay on Enterococcus faecium [6], greater than 64 µg/mL; in the assay with Staphylococcus aureus [7] it was greater than 32 µg/mL; against Enterococcus faecalis [8] it was greater than 64 µg/mL. For the same molecule, the MIC in assay [9] and in [10] was greater than 32 µg/mL each time. Moreover, the concentration for half-maximal inhibition (IC50) with CCRF-CEM was no less than 250 µM; in the assay on L1210, greater than 250 µM; with MOLT-4, no less than 250 µM. Moreover, the MCC in the assay on C3H/3T3 is 100 µg/mL.
`CN[C@H](CC(C)C)C(=O)N[C@H]1C(=O)N[C@@H](CC(N)=O)C(=O)N[C@H]2C(=O)N[C@H]3C(=O)N[C@H](C(=O)N[C@H](C(=O)NC4C5CC6CC(C5)CC4C6)c4cc(O)cc(O)c4-c4cc3ccc4O)[C@H](O)c3ccc(cc3)Oc3cc2cc(c3O)Oc2ccc(cc2Cl)[C@H]1O` (stereo not given in full): the figures for the EC50 in [1], in assay [2] and in assay [11] were greater than 4 µM, 20 µM and 8.5 µM, respectively. The MIC with Enterococcus faecalis [3] came out at 8 µg/mL (≈ 6.44 µM); against Staphylococcus aureus [4] it was 16 µg/mL (≈ 12.9 µM); against Enterococcus faecium [5], 32 µg/mL (≈ 25.7 µM); in the assay on Enterococcus faecium [6], 16 µg/mL (≈ 12.9 µM); against Staphylococcus aureus [7], 16 µg/mL (≈ 12.9 µM); against Enterococcus faecalis [8] it was 32 µg/mL (≈ 25.7 µM). The MIC in [9] and in [10] was 16 µg/mL (≈ 12.9 µM) throughout. The half-maximal inhibitory concentration (IC50) in the assay on CCRF-CEM, with L1210 and in the assay with MOLT-4 was greater than 250 µM in each case. Further, the MCC in the assay on C3H/3T3 came to 20 µg/mL.
Turning to `NCCCCCCCCCCNC(=O)[C@H]1NC(=O)[C@H]2NC(=O)[C@H](NC(=O)[C@@H]3NC(=O)[C@H](CC(N)=O)NC(=O)[C@H](N)[C@H](O)c4ccc(cc4)Oc4cc3cc(c4O)Oc3ccc(cc3)[C@H]2O)c2ccc(O)c(c2)-c2c(O)cc(O)cc21`, the values for the concentration giving a half-maximal response (EC50) in [1], in assay [2] and in [11] were 7.8 µM, greater than 25 µM and greater than 25 µM, respectively. The minimum inhibitory concentration (MIC) in the assay on Enterococcus faecalis [3] is greater than 64 µg/mL; in the assay with Staphylococcus aureus [4] it was greater than 32 µg/mL; in the assay on Enterococcus faecium [5] it was greater than 64 µg/mL; with Enterococcus faecium [6], greater than 64 µg/mL; against Staphylococcus aureus [7], greater than 32 µg/mL; in the assay with Enterococcus faecalis [8] it was greater than 64 µg/mL. In addition, the minimum inhibitory concentration (MIC) in assay [9] and in [10] was greater than 32 µg/mL in each case. Moreover, the values for the IC50 with CCRF-CEM, with L1210 and with MOLT-4 were 106 µM, no less than 250 µM and 144 µM, respectively. For the same molecule, in the assay on C3H/3T3, the MCC is no less than 20 µg/mL.
Consider `NC(=O)C[C@@H]1NC(=O)[C@H](N)[C@H](O)c2ccc(c(Cl)c2)Oc2cc3cc(c2O)Oc2ccc(cc2)[C@@H](O)[C@@H]2NC(=O)[C@H](NC(=O)[C@@H]3NC1=O)c1ccc(O)c(c1)-c1c(O)cc(O)cc1[C@@H](C(=O)O)NC2=O`, for which the values for the concentration for a half-maximal effect (EC50) in assay [1], in assay [2] and in assay [11] were greater than 100 µM, greater than 250 µM and 115 µM, respectively. Besides, the MIC against Enterococcus faecalis [3], in the assay on Staphylococcus aureus [4], in the assay on Enterococcus faecium [5], in the assay with Enterococcus faecium [6], in the assay with Staphylococcus aureus [7] and in the assay on Enterococcus faecalis [8] was greater than 128 µg/mL throughout. Also, the MIC in [9] and in [10] was greater than 128 µg/mL each time. In addition, the IC50 with CCRF-CEM, in the assay with L1210 and in the assay on MOLT-4 was greater than 250 µM throughout. Moreover, the MCC with C3H/3T3 is no less than 100 µg/mL.
Turning to `NC(=O)C[C@@H]1NC(=O)[C@H](N)[C@H](O)c2ccc(c(Cl)c2)Oc2cc3cc(c2O)Oc2ccc(cc2Cl)[C@@H](O)[C@@H]2NC(=O)[C@H](NC(=O)[C@@H]3NC1=O)c1ccc(O)c(c1)-c1c(O)cc(O)cc1[C@@H](C(=O)O)NC2=O`, the concentration giving a half-maximal response (EC50) in [1] was 88 µM; in assay [2], no less than 125 µM; in assay [11], no less than 125 µM. Also, the minimum inhibitory concentration (MIC) in the assay with Enterococcus faecalis [3], against Staphylococcus aureus [4], in the assay with Enterococcus faecium [5], against Enterococcus faecium [6], against Staphylococcus aureus [7] and with Enterococcus faecalis [8] was greater than 128 µg/mL each time. Further, the minimal inhibitory concentration (MIC) in [9] and in assay [10] was greater than 128 µg/mL each time. Moreover, the IC50 is no less than 250 µM in the assay on CCRF-CEM, greater than 250 µM in the assay with L1210 and greater than 250 µM with MOLT-4. The MCC in the assay on C3H/3T3 was greater than 100 µg/mL.
For the molecule `CN[C@H](CC(C)C)C(=O)N[C@H]1C(=O)N[C@@H](CC(N)=O)C(=O)N[C@H]2C(=O)N[C@H]3C(=O)N[C@H](C(=O)N[C@H](C(=O)NCC45CC6CC(CC(C6)C4)C5)c4cc(O)cc(O)c4-c4cc3ccc4O)[C@H](O)c3ccc(cc3)Oc3cc2cc(c3O)Oc2ccc(cc2Cl)[C@H]1O`, the EC50 in assay [1] is 12 µM; in assay [2], 7 µM; in assay [11], 1.6 µM. In addition, the minimum inhibitory concentration (MIC) was 4 µg/mL (≈ 3.18 µM) in the assay with Enterococcus faecalis [3]; 8 µg/mL (≈ 6.37 µM) against Staphylococcus aureus [4]; 8 µg/mL (≈ 6.37 µM) in the assay with Enterococcus faecium [5]; 8 µg/mL (≈ 6.37 µM) against Enterococcus faecium [6]; 8 µg/mL (≈ 6.37 µM) against Staphylococcus aureus [7]; 8 µg/mL (≈ 6.37 µM) against Enterococcus faecalis [8]. In addition, the minimal inhibitory concentration (MIC) in assay [9] and in assay [10] was 8 µg/mL (≈ 6.37 µM) in each case. In addition, the concentration for half-maximal inhibition (IC50) in the assay on CCRF-CEM stood at 148 µM; in the assay on L1210, 94 µM; in the assay on MOLT-4, 126 µM. In addition, in the assay on C3H/3T3, the MCC worked out at 100 µg/mL.
For the molecule `NCCCCCCCCCCNC(=O)[C@H]1NC(=O)[C@H]2NC(=O)[C@H](NC(=O)[C@@H]3NC(=O)[C@H](CC(N)=O)NC(=O)[C@H](N)[C@H](O)c4ccc(c(Cl)c4)Oc4cc3cc(c4O)Oc3ccc(cc3)[C@H]2O)c2ccc(O)c(c2)-c2c(O)cc(O)cc21`, the half-maximal effective concentration (EC50) in [1] was greater than 4 µM; in assay [2], no less than 25 µM; in assay [11], no less than 25 µM. The MIC against Enterococcus faecalis [3] is greater than 64 µg/mL; in the assay on Staphylococcus aureus [4], greater than 32 µg/mL; against Enterococcus faecium [5], greater than 64 µg/mL; in the assay with Enterococcus faecium [6], greater than 64 µg/mL; against Staphylococcus aureus [7] it was greater than 32 µg/mL; against Enterococcus faecalis [8], greater than 64 µg/mL. In addition, the MIC in assay [9] and in assay [10] was greater than 32 µg/mL in each case. In addition, the concentration for half-maximal inhibition (IC50) was 124 µM with CCRF-CEM, no less than 250 µM with L1210 and no less than 250 µM with MOLT-4. Besides, the MCC with C3H/3T3 came to 20 µg/mL.

Source of the values: ChEMBL document CHEMBL1139533, “Structure-activity relationship studies of a series of antiviral and antibacterial aglycon derivatives of the glycopeptide antibiotics vancomycin, eremomycin, and dechloroeremomycin” (J Med Chem, 2005).
